Data taken from US9034655B2, “Highly water-soluble, cationic luminescent labels” (SETA BioMedicals, LLC, priority 2006, dated 2015).

Tests used:
[1] = Fluorescence (luminescent) lifetime of dyes and conjugates; type: physicochemical; settings: for luminescent lifetime (τ): solvent not stated
Description: Typical assays based on the measurement of the fluorescence lifetime as a parameter include for example FRET (fluorescence resonance energy transfer) assays. The binding between a fluorescent donor labeled species (typically an antigen, or a ligand) and a fluorescent acceptor labeled species may be accompanied by a change in the intensity and/or the fluorescence lifetime. The lifetime can be measured using intensity-(Time corrlated single photon counting TCSPC) or phase-modulation-based methods (J. R. LAKOWICZ, PRINCIPLES OF FLUORESCENCE SPECTROSCOPY (2nd Ed. 1999)).

[2] = Fluorescence quantum yield (QY); type: physicochemical
[3] = Absorption and emission maxima (spectral properties); type: physicochemical
Description: The synthesis of representative dyes is provided in the Examples Section. The structures, absorption and emission data as well as the luminescent lifetime in different solvents of specific dyes are given in Table 1.

[4] = cited from earlier work

Row | Compound | Lifetime [ns] ([1]; Ethanol (Table 1)) | Lifetime [ns] ([1]; Water (Table 1)) | λ(abs) [nm] ([3]; Ethanol) | λ(fl) [nm] ([3]; Ethanol) | λ(abs) [nm] ([3]; Water) | λ(fl) [nm] ([3]; Water) | (QY [%]) ([2]; Water (Table 1)) | (QY [%]) ([2]; Ethanol (Table 1)) | further results
1 | CN(C)c1ccc2c3c(cccc13)C(=O)N(c1ccccc1)C2=O [Dye 1, phenylimide of 4-dimethyl aminonaphthalic acid] | – | – | – | – | – | – | – | – | Lifetime [ns] ([1]; Ethanol): <<1 ns; lifetime in ethanol ([1]; Ethanol): < 1 ns; lifetime in water compared with ethanol ([1]; Water): even further reduced; (QY [%]) ([2]; Ethanol): 0.5%; Q.Y. in water compared with ethanol ([2]; Water): even further reduced
2 | CN1C[N+](C)(C)Cc2cc3c4c(cccc4c21)C(=O)N(c1ccc(C(=O)O)cc1)C3=O.[Cl-] [Dye 3, 5-(4-carboxyphenyl)-9,9,11-trimethyl-4,6-dioxo-5,6,8,9,10,11-hexahydro-4H-isoquino[4,5-g,h]quinazolin-9-ium chloride] | – | – | – | – | – | – | – | – | lifetime in water ([1]; Water): 9.3 ns; overall decrease in fluorescence lifetime ([1]; free dye in water vs IgG conjugate at D/P about 8): 10%; lifetime labeled to IgG ([1]; labeled to IgG at a D/P ratio of about 1): 8.9 ns; lifetime labeled to IgG ([1]; labeled to IgG, D/P ratio of about 8): 8.4 ns
3 | CN1C[N+](C)(C)Cc2cc3c4c(cccc4c21)C(=O)N(c1ccc(C(=O)ON2C(=O)CCC2=O)cc1)C3=O [Dye 3-NHS] | 8.0 ns | 9.3 ns | 390 nm | 500 nm | 404 nm | 518 nm | – | – | –
4 | CN1C[N+](C)(C)Cc2cc3c4c(cccc4c21)C(=O)N(c1ccc(C(=O)O)cc1)C3=O.[Cl-] [Dye 3a] | – | 9.4 ns | – | – | 405 nm | 515 nm | 72% | – | –
5 | CN1C[N+](C)(C)Cc2c1cc1c3c(cccc23)C(=O)N(CCCCCC(=O)O)C1=O [Dye 4a] | – | – | – | – | – | – | – | – | luminescent lifetime (τ) [1]: 26 ns
6 | CN1C[N+](C)(C)Cc2cc3c4c(cccc4c21)C(=O)N(c1ccccc1)C3=O.[Cl-] [Dye 5, 9,9,11-trimethyl-4,6-dioxo-5-phenyl-5,6,8,9,10,11-hexahydro-4H-isoquino[4,5-g,h]quinazolin-9-ium chloride] | 8.5 ns | 9.4 ns | 393 nm | 498 nm | 405 nm | 515 nm | 72% | 58% | Lifetime [ns] ([1]; DMF): 9.0 ns; Lifetime [ns] ([1]; Ethanol): 8.5 ns; Lifetime [ns] ([1]; Water): 9.4 ns; (QY [%]) ([2]; Ethanol): 58%; (QY [%]) ([2]; Water): 75%; λ(abs) [nm] ([3]; DMF): 393 nm; λ(fl) [nm] ([3]; DMF): 500 nm; melting point: 235 °C
7 | CN1C[N+](C)(C)Cc2c1cc1c3c(cccc23)C(=O)N(c2ccccc2)C1=O [Dye 6, 8,10,10-trimethyl-4,6-dioxo-5-phenyl-5,6,8,9,10,11-hexahydro-4H-isoquino[5,4-fg]quinazolin-10-ium hexafluorophosphate] | 23.3 ns | 22.9 ns | 414 nm | 513 nm | 426 nm | 545 nm | – | 51% | luminescent lifetime (τ) [1]: around 23 ns
8 | CCOC(=O)c1c(C)nn2c(=O)c3cccc4c5c(cc(c43)c12)C[N+](C)(C)CN5C.[Cl-] [Dye 8] | 7.8 ns | 5.7 ns | 436 nm | 584 nm | 449 nm | 600 nm | 7% | 44% | Lifetime [ns] ([1]; Water + BSA): 6.1 ns; λ(abs) [nm] ([3]; Water + BSA): 449 nm; λ(fl) [nm] ([3]; Water + BSA): 600 nm
9 | CN1C[N+](C)(C)Cc2c1ccc1cc3ccccc3cc21 [Dye 13, 2,2,4-trimethyl-1,2,3,4-tetrahydronaphtho[2,3-f]quinazolin-2-ium hexafluorophosphate] | – | 20.9 ns | 395 nm | 462 nm | 398 nm | 481 nm | 40% | 30% | lifetime in water ([1]; Water): 20 ns
10 | fluorescein-isothiocyanate [FITC] | – | – | – | – | – | – | – | – | lifetime losses when covalently labeled to proteins ([4]; D/P ~ 8, Lakowicz et al. 2004): ~40%; lifetime τ ([4]; free label): 4.0 ns
